1 compound from ChEMBL document CHEMBL2074490, “Transport and uptake of nateglinide in Caco-2 cells and its inhibitory effect on human monocarboxylate transporter MCT1” (Br J Pharmacol, 2002) can be followed below.

This assay concerns the target Monocarboxylate transporter 1 (Homo sapiens) (UniProt P53985). Description: TP_TRANSPORTER: uptake in Xenopus laevis oocytes. Conditions: Oocyte.

Monocarboxylate transporter 1 (Homo sapiens), sequence (P53985 whole entry, looked up): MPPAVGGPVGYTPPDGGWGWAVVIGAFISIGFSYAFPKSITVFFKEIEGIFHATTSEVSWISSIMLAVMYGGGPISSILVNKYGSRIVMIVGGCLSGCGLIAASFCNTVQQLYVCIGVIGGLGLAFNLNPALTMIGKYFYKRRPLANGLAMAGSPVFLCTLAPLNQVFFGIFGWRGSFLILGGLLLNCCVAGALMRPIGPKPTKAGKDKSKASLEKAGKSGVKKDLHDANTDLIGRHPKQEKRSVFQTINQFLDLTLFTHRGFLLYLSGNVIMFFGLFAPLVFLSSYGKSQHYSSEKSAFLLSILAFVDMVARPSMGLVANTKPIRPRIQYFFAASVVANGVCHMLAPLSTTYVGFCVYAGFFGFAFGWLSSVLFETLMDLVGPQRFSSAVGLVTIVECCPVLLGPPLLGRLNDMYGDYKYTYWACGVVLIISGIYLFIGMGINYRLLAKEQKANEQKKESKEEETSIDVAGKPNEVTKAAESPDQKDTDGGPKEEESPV

Regarding `CC(C)[C@H]1CC[C@H](C(=O)N[C@H](Cc2ccccc2)C(=O)O)CC1`, the Activity entry is “is not a substrate [-]”.
